Data on four compounds can be found in article PMC8571316 (Scientific Reports, 2021).

Peptide text beside a SMILES is read from it. * marks the point of attachment. Biotin = O=C1N[C@H]2[C@H](CS[C@H]2CCCCC(=O)*)N1; PEG4 = NCCOCCOCCOCCOCCC(=O)O

In this assay the test system is Influenza HA. Format: binding.
For the compound `CC(C)C[C@H](NC(=O)[C@H](CC(=O)O)NC(=O)[C@H](CCC(=O)O)NC(=O)[C@H](Cc1c[nH]c2ccccc12)NC(=O)[C@H](CCC(=O)O)NC(=O)[C@H](CC(C)C)NC(=O)[C@H](CC(N)=O)NC(=O)[C@H](Cc1ccccc1)NC(=O)[C@@H](NC(=O)[C@H](Cc1ccccc1)NC(=O)[C@H](CC(C)C)NC(=O)[C@H](Cc1ccccc1)NC(=O)[C@H](CC(C)C)NC(=O)[C@@H](NC(=O)[C@H](Cc1c[nH]c2ccccc12)NC(=O)[C@H](CC(=O)O)NC(=O)CCOCCOCCOCCOCCNC(=O)CCCC[C@@H]1SC[C@@H]2NC(=O)N[C@@H]21)[C@@H](C)O)C(C)C)C(=O)N[C@@H](Cc1ccccc1)C(=O)N[C@@H](Cc1ccc(O)cc1)C(=O)O` [Peptide P89] ({Biotin-PEG4}-DWTLFLFVFNLEWEDLFY-OH; C-terminus assumed), the “cross-reactivity (selectivity of binding, in words)” value is listed as “some level of cross-reactivity”.

On to `CC[C@H](C)[C@H](NC(=O)[C@H](CCC(=O)O)NC(=O)[C@H](Cc1ccc(O)cc1)NC(=O)[C@H](Cc1ccc(O)cc1)NC(=O)[C@H](CCSC)NC(=O)[C@H](Cc1c[nH]cn1)NC(=O)[C@H](CCSC)NC(=O)[C@H](Cc1c[nH]c2ccccc12)NC(=O)[C@H](CCCCN)NC(=O)[C@H](CC(=O)O)NC(=O)[C@H](Cc1c[nH]c2ccccc12)NC(=O)[C@H](CCC(=O)O)NC(=O)[C@@H](NC(=O)[C@H](CCCCN)NC(=O)CCOCCOCCOCCOCCNC(=O)CCCC[C@@H]1SC[C@@H]2NC(=O)N[C@@H]21)[C@@H](C)O)C(=O)N[C@@H](Cc1ccccc1)C(=O)N[C@@H](Cc1ccc(O)cc1)C(=O)N[C@@H](CCC(=O)O)C(=O)N[C@@H](CC(=O)O)C(=O)O` [Peptide P100] ({Biotin-PEG4}-KTEWDKWMHMYYEIFYED-OH; C-terminus assumed), for which the “cross-reactivity (selectivity of binding, in words)” value is “some level of cross-reactivity”.

With `CC[C@H](C)[C@H](NC(=O)[C@H](CC(=O)O)NC(=O)[C@H](Cc1ccccc1)NC(=O)[C@H](CC(N)=O)NC(=O)CCOCCOCCOCCOCCNC(=O)CCCC[C@@H]1SC[C@@H]2NC(=O)N[C@@H]21)C(=O)N[C@@H](CC(C)C)C(=O)N[C@@H](CC(C)C)C(=O)N[C@@H](Cc1ccccc1)C(=O)N[C@H](C(=O)N[C@@H](Cc1ccccc1)C(=O)N[C@@H](CC(N)=O)C(=O)N[C@@H](Cc1ccc(O)cc1)C(=O)N[C@@H](CCC(=O)O)C(=O)N[C@@H](CCSC)C(=O)N[C@@H](CCC(=O)O)C(=O)N[C@@H](CC(=O)O)C(=O)N[C@@H](CCCCN)C(=O)N[C@@H](Cc1ccccc1)C(=O)N[C@@H](Cc1ccc(O)cc1)C(=O)O)C(C)C` [Peptide P168] ({Biotin-PEG4}-NFDILLFVFNYEMEDKFY-OH; C-terminus assumed), the “cross-reactivity (selectivity of binding, in words)” value is on record as “some level of cross-reactivity”.

As for `CC[C@H](C)[C@H](NC(=O)[C@@H](NC(=O)[C@H](Cc1ccc(O)cc1)NC(=O)[C@H](Cc1ccccc1)NC(=O)[C@H](Cc1ccc(O)cc1)NC(=O)[C@@H](NC(=O)[C@H](CCC(=O)O)NC(=O)[C@H](CCSC)NC(=O)[C@H](Cc1c[nH]c2ccccc12)NC(=O)[C@H](Cc1c[nH]cn1)NC(=O)[C@H](CO)NC(=O)[C@H](Cc1ccccc1)NC(=O)[C@H](CCSC)NC(=O)[C@H](CC(=O)O)NC(=O)[C@H](Cc1c[nH]c2ccccc12)NC(=O)[C@H](CC(=O)O)NC(=O)[C@@H](NC(=O)[C@H](CCCCN)NC(=O)CCOCCOCCOCCOCCNC(=O)CCCC[C@@H]1SC[C@@H]2NC(=O)N[C@@H]21)[C@@H](C)O)[C@@H](C)CC)C(C)C)C(=O)O` [Peptide P180] ({Biotin-PEG4}-KTDWDMFSHWMEIYFYVI-OH; C-terminus assumed), the “cross-reactivity (selectivity of binding, in words)” value is recorded as “some level of cross-reactivity”.
